Test results as given in patent US20210361683A1, “COMPOSITIONS AND METHODS FOR THE TREATMENT OF MUSCLE CONTRACTURES” (Children's Hospital Medical Center, priority 2018, published 2021).
“Also recorded” adds a separate entry of the source.

Key:
[1] = system: elbow and shoulder contractures after neonatal brachial plexus injury (NBPI); assay: Elbow and shoulder contracture severity (range of motion) in mouse model of NBPI; assay type: in vivo, mice; conditions: for contracture severity (efficacy): compared to 0.4 mg/kg from P5; for shoulder and elbow contracture severity: 4 weeks after NBPI
Text: All animal procedures were approved by Cincinnati Children's Hospital Medical Center's Institutional Animal Care and Use Committee. Unilateral global (C5-T1) NBPIs were created by surgical extraforaminal nerve root excision in 5-day-old CD-1 mice (Charles River) under general anesthesia. Deficits in motor function were validated post-operatively and again prior to sacrifice to ensure only animals with permanent motor deficits were included for analysis. Elbow and shoulder (where indicated) range of motion were measured immediately post-sacrifice using a validated digital photography technique in order to confirm the presence of elbow flexion and shoulder internal rotation contractures^16. Mice were euthanized by CO2 asphyxiation, except at postnatal day 5 and 12 time points, where isoflurane overdose was utilized.
(§1) Mice were treated either with saline (as the vehicle; 0.9% Sodium Chloride Injection USP, Hospira), [Gly^14]-Humanin G ([Gly14]-HN; 1 μg/dose; H6161, Sigma-Aldrich) alone or co-administered with Bortezomib (0.2-0.4 mg/kg body weight; 5043140001, Sigma-Aldrich) by IP injection starting immediately post-operative or delayed by 3/7 days (P8/12 start), and injected every other day with sacrifice at 4 weeks post-NBPI (24 h following the last IP injection). The use of littermate controls was rejected due to the risk of treatment cross-contamination either through direct contact or by ingestion from their mother, and [Gly14]-HN was included to mitigate the toxicity that has been reported for Bortezomib^47. Deficits in motor function were confirmed as described above, and measurement of shoulder and elbow range of motion was measured immediately post-sacrifice^16 with blinding to the treatment group. Mouse limbs harvested 4 weeks post-NBPI were positioned on cork for processing of bilateral brachialis muscles for DIC microscopy as described above for measurement of muscle sarcomere length.

[2] = system: brachialis muscle after NBPI; assay: Brachialis sarcomere length (muscle length) 4 weeks post-NBPI; assay type: in vivo, mice; conditions: 0.3 mg/kg, P8 to P33
Protocol: Sarcomere lengths were measured from single muscle fibers, acquiring 6 images per fiber by differential interference contrast (DIC) microscopy on a Nikon Eclipse Ti-E inverted microscope with the Plan Apo λ40× objective (Nikon Instruments), Xyla 4.2 megapixel, 16-bit sCMOS monochromatic camera (Andor/Oxford Instruments) and NIS-Elements imaging software (Nikon Instruments). A series of 10 sarcomeres were measured per image in AxioVision software and an average sarcomere length was then determined for each fiber.
Mouse limbs harvested 4 weeks post-NBPI were processed on cork at 90° elbow flexion (confirmed by digital x-ray) prior to fixation in 10% NBF as described previously^16. […]
Mice were treated either with saline (as the vehicle; 0.9% Sodium Chloride Injection USP, Hospira), [Gly^14]-Humanin G ([Gly14]-HN; 1 μg/dose; H6161, Sigma-Aldrich) alone or co-administered with Bortezomib (0.2-0.4 mg/kg body weight; 5043140001, Sigma-Aldrich) by IP injection starting immediately post-operative or delayed by 3/7 days (P8/12 start), and injected every other day with sacrifice at 4 weeks post-NBPI (24 h following the last IP injection). […] Deficits in motor function were confirmed as described above, and measurement of shoulder and elbow range of motion was measured immediately post-sacrifice^16 with blinding to the treatment group. […]

[3] = Survival / mortality of NBPI mice during treatment; assay type: in vivo
Protocol: as §1

Compound	contracture severity ([1]; 0.2 mg/kg, P5 to P33)	contracture severity (efficacy) ([1]; 0.3 mg/kg, P5 to P33)	prevention of contractures ([1]; 0.3 mg/kg, P8 to P33)	shoulder and elbow contracture severity ([1]; 0.4 mg/kg every other day IP, P5 to P33, co-administered with [Gly14]-Humanin, vs saline)	contracture severity (efficacy) ([1]; 0.4 mg/kg, P8 to P33)	contracture severity ([1]; 0.4 mg/kg, P12-P33)	prevention of contractures, dose dependence ([1]; 0.2-0.4 mg/kg following NBPI)	reduction in the sarcomere elongation caused by NBPI (rescue of brachialis length) [2]	sarcomere length in the brachialis [2]	mortality ([3]; 0.2 mg/kg, P5 to P33)	mortality ([3]; 0.3 mg/kg, P5 to P33, compared to 0.4 mg/kg from P5)	mortality (early death) ([3]; 0.3 mg/kg, P8 to P33)	mortality ([3]; 0.4 mg/kg every other day, P5 to P33)	mortality ([3]; 0.4 mg/kg, P8 to P33, compared to 0.4 mg/kg from P5)	mortality ([3]; 0.4 mg/kg, P12-P33)	shoulder and elbow contracture severity ([1]; [Gly14]-Humanin alone, 1 μg/dose IP every other day)
CC(C)C[C@H](NC(=O)[C@H](Cc1ccccc1)NC(=O)c1cnccn1)B(O)O [Bortezomib, ([1R)-3-methyl-1-[[(2S)-1-oxo-3-phenyl-2-[(pyrazinylcarbonyl)amino]propyl]amino]butyl]-boronic acid]	less severe contractures compared to saline they were not as efficacious as 0.4 mg/kg Bortezomib administered beginning at P5	maintained efficacy	optimal efficacy in prevention of contractures; also recorded: lack of contractures	significantly reducing shoulder and elbow contracture severity; also recorded: corrected	maintained efficacy	less severe contractures compared to saline they were not as efficacious as 0.4 mg/kg Bortezomib administered beginning at P5	prevents contractures in a dose-dependent manner	70%	preserves muscle length	eliminated mortality	partially improved mortality	minimal early death	caused mortality, mostly in the first week of treatment	partially improved mortality	eliminated mortality	–
[Gly^14]-Humanin	–	–	–	–	–	–	–	–	–	–	–	–	–	–	–	no effect alone
